Data set [1] in a line: Assay (IV) determination of solubility. The format is physicochemical. On the procedure:
Assay (IV)—Determination of Solubility
The mimylin peptide was dissolved in water at ˜500 nmol/ml and mixed 1:1 with a series of buffers (100 mM glycylglycine pH 3.0, 100 mM glycylglycine pH 4.0, 100 mM glycylglycine pH 5.0, 100 mM bistrispropane pH 6.0, 100 mM bistrispropane pH 6.5, 100 mM bistrispropane pH 7.0, 100 mM bistrispropane pH 7.5, 100 mM bistrispropane pH 8.0).

The target in data set [2] is T1, human calcitonin (a) receptor, BHK570 cells (Homo sapiens, UniProt P30988).
T1 construct: host or cells: BHK570
T1 sequence (P30988 25-474): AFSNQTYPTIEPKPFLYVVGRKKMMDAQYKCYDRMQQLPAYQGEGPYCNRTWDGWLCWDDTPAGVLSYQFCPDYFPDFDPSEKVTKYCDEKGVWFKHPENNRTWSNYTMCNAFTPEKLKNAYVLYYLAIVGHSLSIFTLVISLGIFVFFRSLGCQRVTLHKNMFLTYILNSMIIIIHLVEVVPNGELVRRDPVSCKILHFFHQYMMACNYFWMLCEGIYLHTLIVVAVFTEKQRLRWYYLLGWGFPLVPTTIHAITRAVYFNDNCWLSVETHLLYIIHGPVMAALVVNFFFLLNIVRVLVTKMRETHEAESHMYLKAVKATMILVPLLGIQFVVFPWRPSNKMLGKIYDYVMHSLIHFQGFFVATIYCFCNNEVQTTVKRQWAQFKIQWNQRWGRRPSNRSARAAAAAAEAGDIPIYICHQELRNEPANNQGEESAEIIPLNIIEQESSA
The data set can be described thus: Assay (II)a functional CRE-luciferase assay with albumin, human calcitonin receptor. The note with it: Tested with HSA; read-out: hCTR funct. EC50. The data set is classed as cell-based. The method, boiled down:
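BHK570 cells stably carry a CRE-luciferase reporter and the calcitonin receptor; co-transfected RAMP-3 gives the amylin 3(a) receptor line. Cells were treated for 3 h at 37 °C in DMEM with 10% FBS and 10 mM Hepes, pH 7.4. cAMP-driven luciferase was read by LucLite luminescence after 30 min at RT.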

The next data set concerns the target T2, rat calcitonin receptor (Rattus norvegicus, UniProt P32214).
T2 construct: expressed in transfected cells; host or cells: BHK tk'ts 13 (transient, FuGENE 6)
T2 sequence (P32214 25-479 isoform P32214-2 limits assumed): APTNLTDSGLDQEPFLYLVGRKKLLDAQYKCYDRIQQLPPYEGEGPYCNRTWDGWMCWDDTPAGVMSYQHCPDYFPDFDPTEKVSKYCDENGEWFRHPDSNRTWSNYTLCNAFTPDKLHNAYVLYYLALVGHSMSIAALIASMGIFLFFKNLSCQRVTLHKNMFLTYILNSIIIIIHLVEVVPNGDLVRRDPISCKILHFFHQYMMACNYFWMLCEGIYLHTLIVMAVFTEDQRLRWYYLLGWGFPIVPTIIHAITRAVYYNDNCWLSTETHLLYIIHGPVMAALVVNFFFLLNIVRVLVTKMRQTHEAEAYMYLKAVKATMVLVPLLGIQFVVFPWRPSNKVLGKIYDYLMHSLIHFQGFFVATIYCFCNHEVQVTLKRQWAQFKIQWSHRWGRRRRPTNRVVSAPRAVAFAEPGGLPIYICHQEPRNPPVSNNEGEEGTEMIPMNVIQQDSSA
The data set can be described thus: Assay (VIII) binding to the rat calcitonin receptor. The note with it: membranes; read-out: rCT-R binding IC50. Put shortly: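 Affinity given as IC50 from a one-site competition fit of bound radioactivity, counted by scintillation after cold HBSS washes and NaOH/SDS lysis. Membranes came from BHK tk'ts 13 cells transiently expressing the rat receptor; other conditions followed the human calcitonin receptor protocol.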

Broadly, the solubility is how much of the substance goes into solution per volume. A low value points to a poorly soluble substance. For orientation: pEC50 means the EC50 on a negative log10 scale, so that one unit is a factor of ten. For orientation: pIC50 means the IC50 on a negative log10 scale, so that one unit is a factor of ten.

Each structure is given as a SMILES string. pEC50, pIC50: −log10 of the molar value. Numbered stars: 1 amine (or outer) side, 2 acyl side, 3 side chain; on linkers, the order of the positions; unused ones are H or OH. Peptide text beside a SMILES is read from it. * marks the point of attachment. C18 diacid = O=C(O)CCCCCCCCCCCCCCCCC(=O)*; γGlu = O=C(O)[C@H](CCC(=O)[*:2])N[*:1]

Take `CC(C)C[C@H](NC(=O)[C@H](CCC(=O)O)NC(=O)[C@H](C)NC(=O)[C@@H](NC(=O)[C@H](CC(C)C)NC(=O)[C@H](CCCNC(=N)N)NC(=O)CNC(=O)[C@H](CC(C)C)NC(=O)[C@@H](NC(=O)[C@H](C)NC(=O)[C@@H](NC(=O)[C@@H](NC(=O)[C@H](CC(C)C)NC(=O)[C@H](CCC(=O)O)NC(=O)[C@H](CO)NC(=O)[C@H](C)NC(=O)CC[C@H](NC(=O)CCCCCCCCCCCCCCCCC(=O)O)C(=O)O)[C@@H](C)O)[C@@H](C)O)C(C)C)[C@@H](C)O)C(=O)N[C@@H](Cc1c[nH]cn1)C(=O)N[C@@H](CCC(=O)O)C(=O)N[C@@H](CC(C)C)C(=O)N[C@@H](CCC(=O)O)C(=O)N[C@H](C(=O)N[C@@H](CC(C)C)C(=O)N1CCC[C@H]1C(=O)N[C@@H](CCCNC(=N)N)C(=O)N[C@H](C(=O)N[C@@H](CCC(=O)O)C(=O)N[C@H](C(=O)NCC(=O)N[C@H](C(=O)NCC(=O)N[C@H](C(=O)N1CCC[C@H]1C(N)=O)[C@@H](C)O)[C@@H](C)O)[C@@H](C)O)[C@@H](C)O)[C@@H](C)O` [compound 105, [N-terminal(C18 diacid-gGlu), des1, 6T, 9V, 14T, 21E, 30T, 31G, 32T]mimylin] ({C18 diacid-γGlu}-ASELTTAVLGRLTAELHELETLPRTETGTGTP-NH2): the solubility at 18 h in data set [1] (bistrispropane buffer, pH 6.5) was no less than 200 µM; in data set [1] (bistrispropane buffer, pH 7.5) it was no less than 200 µM; in data set [1] (bistrispropane buffer, pH 6.0) it was no less than 200 µM; in data set [1] (bistrispropane buffer, pH 7.0), no less than 200 µM; in data set [1] (bistrispropane buffer, pH 8.0) it was no less than 200 µM; in data set [1] (glycylglycine buffer, pH 3.0) it was no less than 200 µM. Also, the solubility at 18 h in data set [1] (glycylglycine buffer, pH 4.0) is no less than 200 µM; in data set [1] (glycylglycine buffer, pH 5.0), no less than 200 µM. Moreover, in data set [2], the pEC50 was 10.66. For the same compound, the pIC50 at rat calcitonin receptor was 10.14.

The values are drawn from US9593149B2, “Amylin and calcitonin receptor agonist” (Novo Nordisk A/S, priority 2014, dated 2017).
